Results taken from the supplement of paper PMC10307832.

Legend:
Assay in all cases: relative viability (nuclei count vs DMSO), 5 days (fraction); higher = more cells survive
LU99A = test system: LU99A
Summary of the method: (§1)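 Lung cancer cell lines were pin-tool dosed in 1536-well plates on the day after seeding, with either a lone drug or a fixed anchor-drug dose plus five library-drug doses (not always all listed) in √10 steps. Nuclei were counted on 4× images after 5 days. Relative viability is the ratio of treated-well to vehicle-well nuclei counts, with each value a median of duplicate plates.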

NCI-H2347 = test system: NCI-H2347
Summary of the method: as §1

NCI-H1355 = test system: NCI-H1355
Summary of the method: as §1

EPLC-272H = test system: EPLC-272H
Summary of the method: as §1

HARA = test system: HARA
Summary of the method: as §1

SW 1573 = test system: SW 1573
Summary of the method: as §1

ABC-1 = test system: ABC-1
Summary of the method: as §1

NCI-H1993 = test system: NCI-H1993
Summary of the method: as §1

NCI-H2023 = test system: NCI-H2023
Summary of the method: as §1

NCI-H2085 = test system: NCI-H2085
Summary of the method: as §1

NCI-H838 = test system: NCI-H838
Summary of the method: as §1

NCI-H1915 = test system: NCI-H1915
Summary of the method: as §1

## O=c1cc(-c2cccc3c2Sc2ccccc2S3)oc(N2CCOCC2)c1 + O=C(CCCCCCC(=O)Nc1ccccc1)NO [Vorinostat] (partner 1 µM)
LU99A; first compound 0.8 µM
  relative viability: 0.639
LU99A; first compound 2.53 µM
  relative viability: 0.514
LU99A; first compound 8 µM
  relative viability: 0.669
NCI-H2347; first compound 0.08 µM
  relative viability: 0.606
NCI-H2347; first compound 0.253 µM
  relative viability: 0.609
NCI-H2347; first compound 0.8 µM
  relative viability: 0.548
NCI-H2347; first compound 2.53 µM
  relative viability: 0.499
NCI-H2347; first compound 8 µM
  relative viability: 0.46
NCI-H1355; first compound 0.08 µM
  relative viability: 0.628
NCI-H1355; first compound 0.253 µM
  relative viability: 0.709
NCI-H1355; first compound 0.8 µM
  relative viability: 0.526
NCI-H1355; first compound 2.53 µM
  relative viability: 0.654
NCI-H1355; first compound 8 µM
  relative viability: 0.584
EPLC-272H; first compound 0.08 µM
  relative viability: 0.449
EPLC-272H; first compound 0.253 µM
  relative viability: 0.363
EPLC-272H; first compound 0.8 µM
  relative viability: 0.291
EPLC-272H; first compound 2.53 µM
  relative viability: 0.629
EPLC-272H; first compound 8 µM
  relative viability: 0.441
HARA; first compound 0.08 µM
  relative viability: 0.538
HARA; first compound 0.253 µM
  relative viability: 0.59
HARA; first compound 0.8 µM
  relative viability: 0.442
HARA; first compound 8 µM
  relative viability: 0.36
SW 1573; first compound 0.08 µM
  relative viability: 0.702
SW 1573; first compound 0.253 µM
  relative viability: 0.933
SW 1573; first compound 0.8 µM
  relative viability: 1.01
SW 1573; first compound 2.53 µM
  relative viability: 0.771
SW 1573; first compound 8 µM
  relative viability: 0.907
ABC-1; first compound 0.08 µM
  relative viability: 1.13
ABC-1; first compound 0.253 µM
  relative viability: 1.1
ABC-1; first compound 0.8 µM
  relative viability: 1.24
ABC-1; first compound 2.53 µM
  relative viability: 1.15
ABC-1; first compound 8 µM
  relative viability: 0.972
NCI-H1993; first compound 0.08 µM
  relative viability: 0.723
NCI-H1993; first compound 0.253 µM
  relative viability: 0.843
NCI-H1993; first compound 0.8 µM
  relative viability: 0.908
NCI-H1993; first compound 2.53 µM
  relative viability: 0.755
NCI-H1993; first compound 8 µM
  relative viability: 0.736
NCI-H2023; first compound 0.08 µM
  relative viability: 0.707
NCI-H2023; first compound 0.253 µM
  relative viability: 0.752
NCI-H2023; first compound 0.8 µM
  relative viability: 0.718
NCI-H2023; first compound 2.53 µM
  relative viability: 0.583
NCI-H2023; first compound 8 µM
  relative viability: 0.451
NCI-H2085; first compound 0.08 µM
  relative viability: 0.739
NCI-H2085; first compound 0.253 µM
  relative viability: 0.825
NCI-H2085; first compound 0.8 µM
  relative viability: 0.687
NCI-H2085; first compound 2.53 µM
  relative viability: 0.759
NCI-H2085; first compound 8 µM
  relative viability: 0.612
NCI-H838; first compound 0.08 µM
  relative viability: 0.746
NCI-H838; first compound 0.253 µM
  relative viability: 0.739
NCI-H838; first compound 0.8 µM
  relative viability: 0.831
NCI-H838; first compound 2.53 µM
  relative viability: 0.636
NCI-H838; first compound 8 µM
  relative viability: 0.535
NCI-H1915; first compound 0.08 µM
  relative viability: 0.549
NCI-H1915; first compound 0.253 µM
  relative viability: 0.492
NCI-H1915; first compound 0.8 µM
  relative viability: 0.592
NCI-H1915; first compound 2.53 µM
  relative viability: 0.517
NCI-H1915; first compound 8 µM
  relative viability: 0.562
